Experimental data taken from PubChem BioAssay (NCI).
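Cultured in 96-well plates, cells were exposed to test compound for 48 hours across five concentrations. GI50 is the concentration that inhibits growth by half. At the TGI there is no net growth.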

Assays:
Experiment in all cases: inhibition of tumour cell growth, NCI panel, 48 h
UACC-257 melanoma = test system: UACC-257 melanoma
NCI/ADR-RES ovarian = test system: NCI/ADR-RES ovarian
MDA-MB-435 = test system: MDA-MB-435
NCI-H23 lung = test system: NCI-H23 lung
SF-295 CNS = test system: SF-295 CNS
NCI-H226 lung = test system: NCI-H226 lung
SR leukemia = test system: SR leukemia
OVCAR-3 ovarian = test system: OVCAR-3 ovarian
CCRF-CEM leukemia = test system: CCRF-CEM leukemia
A498 renal = test system: A498 renal
RPMI-8226 leukemia = test system: RPMI-8226 leukemia
SK-MEL-2 melanoma = test system: SK-MEL-2 melanoma
K-562 leukemia = test system: K-562 leukemia
SF-268 CNS = test system: SF-268 CNS
SNB-75 CNS = test system: SNB-75 CNS
M14 melanoma = test system: M14 melanoma
MDA-MB-468 breast = test system: MDA-MB-468 breast
NCI-H522 lung = test system: NCI-H522 lung
ACHN renal = test system: ACHN renal
UO-31 renal = test system: UO-31 renal
HCT-15 colon = test system: HCT-15 colon
SW-620 colon = test system: SW-620 colon
SK-MEL-5 melanoma = test system: SK-MEL-5 melanoma
786-0 renal = test system: 786-0 renal
HOP-92 NSCLC = test system: HOP-92 NSCLC
DU-145 prostate = test system: DU-145 prostate
HCT-116 colon = test system: HCT-116 colon
KM12 colon = test system: KM12 colon
EKVX NSCLC = test system: EKVX NSCLC
LOX IMVI melanoma = test system: LOX IMVI melanoma
MDA-MB-231 breast = test system: MDA-MB-231 breast
PC-3 prostate = test system: PC-3 prostate
OVCAR-5 ovarian = test system: OVCAR-5 ovarian
HS 578T breast = test system: HS 578T breast
SK-MEL-28 melanoma = test system: SK-MEL-28 melanoma
MOLT-4 leukemia = test system: MOLT-4 leukemia
UACC-62 melanoma = test system: UACC-62 melanoma
SNB-19 CNS = test system: SNB-19 CNS
OVCAR-8 ovarian = test system: OVCAR-8 ovarian
SK-OV-3 ovarian = test system: SK-OV-3 ovarian
U251 CNS = test system: U251 CNS
RXF 393 renal = test system: RXF 393 renal
HCC-2998 colon = test system: HCC-2998 colon
IGROV1 ovarian = test system: IGROV1 ovarian
SF-539 CNS = test system: SF-539 CNS
NCI-H460 lung = test system: NCI-H460 lung
SN12C renal = test system: SN12C renal
COLO 205 colon = test system: COLO 205 colon
A549 NSCLC = test system: A549 NSCLC
OVCAR-4 ovarian = test system: OVCAR-4 ovarian
BT-549 breast = test system: BT-549 breast
CAKI-1 renal = test system: CAKI-1 renal
HOP-62 NSCLC = test system: HOP-62 NSCLC
HT29 colon = test system: HT29 colon
HL-60(TB) leukemia = test system: HL-60(TB) leukemia
MALME-3M melanoma = test system: MALME-3M melanoma
MCF7 breast = test system: MCF7 breast
T-47D breast = test system: T-47D breast
TK-10 renal = test system: TK-10 renal

O=C(Cc1ccc2c(c1)CN(C1CCC(=O)NC1=O)C2=O)NCCc1ccccc1 (stereo unspecified) was tested, and the GI50 (UACC-257 melanoma) was greater than 100 µM, the TGI (UACC-257 melanoma) was greater than 100 µM and the GI50 (NCI/ADR-RES ovarian) was 5.94 µM. The TGI (NCI/ADR-RES ovarian) was greater than 100 µM, the GI50 (MDA-MB-435) was 551 nM and the TGI (MDA-MB-435) was greater than 100 µM. The GI50 (NCI-H23 lung) was greater than 60.8 µM, the TGI (NCI-H23 lung) was greater than 100 µM and the GI50 (SF-295 CNS) was 530 nM. The TGI (SF-295 CNS) was greater than 100 µM, the GI50 (NCI-H226 lung) was 68.5 nM and the TGI (NCI-H226 lung) was 1410 nM. The GI50 (SR leukemia) was greater than 76.5 µM, the TGI (SR leukemia) was greater than 100 µM and the GI50 (OVCAR-3 ovarian) was 2240 nM. The TGI (OVCAR-3 ovarian) was greater than 100 µM, the GI50 (CCRF-CEM leukemia) was less than 10 nM and the GI50 (A498 renal) was 297 nM. The TGI (A498 renal) was 7.76 µM, the GI50 (RPMI-8226 leukemia) was 441 nM and the TGI (RPMI-8226 leukemia) was greater than 100 µM. The GI50 (SK-MEL-2 melanoma) was 225 nM, the TGI (SK-MEL-2 melanoma) was 1820 nM and the GI50 (K-562 leukemia) was 581 nM. It also gave a TGI (K-562 leukemia) greater than 100 µM, a GI50 (SF-268 CNS) of 510 nM and a TGI (SF-268 CNS) greater than 100 µM. The GI50 (SNB-75 CNS) was 42 nM, the TGI (SNB-75 CNS) was 2200 nM and the GI50 (M14 melanoma) was 114 nM. It also gave a TGI (M14 melanoma) greater than 56.4 µM, a GI50 (MDA-MB-468 breast) of less than 10 nM and a TGI (MDA-MB-468 breast) of 16.8 nM. The GI50 (NCI-H522 lung) was greater than 20.2 µM, the TGI (NCI-H522 lung) was greater than 100 µM and the GI50 (ACHN renal) was 5.32 µM. The TGI (ACHN renal) was greater than 100 µM, the GI50 (UO-31 renal) was 226 nM and the TGI (UO-31 renal) was 6.27 µM. The GI50 (HCT-15 colon) was 166 nM, the TGI (HCT-15 colon) was 4.75 µM and the GI50 (SW-620 colon) was 39.1 nM. For the same molecule, the TGI (SW-620 colon) was greater than 100 µM, the GI50 (SK-MEL-5 melanoma) was 156 nM and the TGI (SK-MEL-5 melanoma) was 991 nM. The GI50 (786-0 renal) was 124 nM, the TGI (786-0 renal) was greater than 100 µM and the GI50 (HOP-92 NSCLC) was 13.4 nM. It also gave a TGI (HOP-92 NSCLC) of 146 nM, a GI50 (DU-145 prostate) of 20.8 µM and a TGI (DU-145 prostate) greater than 100 µM. For the same molecule, the GI50 (HCT-116 colon) was 67.9 µM, the TGI (HCT-116 colon) was greater than 100 µM and the GI50 (KM12 colon) was 276 nM. For the same molecule, the TGI (KM12 colon) was greater than 100 µM, the TGI (EKVX NSCLC) was greater than 100 µM and the GI50 (LOX IMVI melanoma) was greater than 100 µM. It also gave a TGI (LOX IMVI melanoma) greater than 100 µM, a GI50 (MDA-MB-231 breast) of less than 10 nM and a TGI (MDA-MB-231 breast) of 10.2 nM. The GI50 (PC-3 prostate) was 36.7 nM, the TGI (PC-3 prostate) was greater than 100 µM and the GI50 (OVCAR-5 ovarian) was 145 nM. The TGI (OVCAR-5 ovarian) was 30.5 µM, the GI50 (HS 578T breast) was 38.5 nM and the TGI (HS 578T breast) was 3.1 µM. It also gave a GI50 (SK-MEL-28 melanoma) of 589 nM, a TGI (SK-MEL-28 melanoma) greater than 100 µM and a GI50 (MOLT-4 leukemia) of less than 10 nM. The TGI (MOLT-4 leukemia) was greater than 100 µM, the GI50 (UACC-62 melanoma) was 2460 nM and the TGI (UACC-62 melanoma) was greater than 100 µM. It also gave a GI50 (SNB-19 CNS) of 76.7 nM, a TGI (SNB-19 CNS) greater than 28.7 µM and a GI50 (OVCAR-8 ovarian) of 32.3 nM. For the same molecule, the TGI (OVCAR-8 ovarian) was greater than 21.4 µM, the GI50 (SK-OV-3 ovarian) was 484 nM and the TGI (SK-OV-3 ovarian) was greater than 85.7 µM. The GI50 (U251 CNS) was greater than 25.1 µM, the TGI (U251 CNS) was greater than 100 µM and the GI50 (RXF 393 renal) was 402 nM. For the same molecule, the TGI (RXF 393 renal) was greater than 24.1 µM, the GI50 (HCC-2998 colon) was 45.1 nM and the TGI (HCC-2998 colon) was 1320 nM. It also gave a GI50 (IGROV1 ovarian) of 33.6 nM, a TGI (IGROV1 ovarian) of 1080 nM and a GI50 (SF-539 CNS) of 564 nM. The TGI (SF-539 CNS) was greater than 100 µM, the GI50 (NCI-H460 lung) was greater than 100 µM and the TGI (NCI-H460 lung) was greater than 100 µM. The GI50 (SN12C renal) was 188 nM, the TGI (SN12C renal) was greater than 30.9 µM and the GI50 (COLO 205 colon) was 43.8 nM. For the same molecule, the TGI (COLO 205 colon) was 1280 nM, the GI50 (A549 NSCLC) was 663 nM and the TGI (A549 NSCLC) was greater than 100 µM. The GI50 (OVCAR-4 ovarian) was 436 nM, the TGI (OVCAR-4 ovarian) was greater than 70.9 µM and the GI50 (BT-549 breast) was 19.2 nM. The TGI (BT-549 breast) was 75.5 nM, the GI50 (CAKI-1 renal) was 276 nM and the TGI (CAKI-1 renal) was greater than 100 µM. For the same molecule, the GI50 (HOP-62 NSCLC) was 30.9 nM, the TGI (HOP-62 NSCLC) was 1320 nM and the GI50 (HT29 colon) was 530 nM. The TGI (HT29 colon) was greater than 100 µM, the GI50 (HL-60(TB) leukemia) was less than 10 nM and the TGI (HL-60(TB) leukemia) was 2190 nM. It also gave a GI50 (MALME-3M melanoma) of 13.5 nM, a TGI (MALME-3M melanoma) of 74.6 nM and a GI50 (MCF7 breast) of 200 nM. For the same molecule, the TGI (MCF7 breast) was greater than 100 µM, the GI50 (T-47D breast) was 21.8 nM and the TGI (T-47D breast) was 414 nM. The GI50 (TK-10 renal) was 727 nM and the TGI (TK-10 renal) was greater than 100 µM.
